From patent publication US20240415802A1, “GENISTEIN FOR ASTHMA TREATMENT” (University of South Florida, priority 2022, published 2024)

Key:
[1] = biological target: T1, PAI-1 (Mus musculus, UniProt P22777); conditions: OVA challenge model of allergic asthma; cited from earlier work
T1 sequence (P22777 23-402): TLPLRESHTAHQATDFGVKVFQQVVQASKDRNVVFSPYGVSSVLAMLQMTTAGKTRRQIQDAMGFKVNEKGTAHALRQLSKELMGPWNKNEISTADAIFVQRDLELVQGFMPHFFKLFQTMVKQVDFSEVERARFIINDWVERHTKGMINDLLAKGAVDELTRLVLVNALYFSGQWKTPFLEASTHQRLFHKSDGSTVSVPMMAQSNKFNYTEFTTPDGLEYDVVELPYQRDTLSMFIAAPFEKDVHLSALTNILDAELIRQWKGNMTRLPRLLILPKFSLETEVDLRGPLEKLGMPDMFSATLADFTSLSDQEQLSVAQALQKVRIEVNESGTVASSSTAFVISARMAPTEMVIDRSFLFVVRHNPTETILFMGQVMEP

[2] = system: PAI-1 4G promoter; assay: PAI-1 promoter luciferase reporter assay in TGF-β stimulated NHBE cells; type: cell-based, human; conditions: NHBE cells transfected with 4G vector; TGF-β 2 ng/mL 6 hours; genistein pretreatment 5 μM 1 hour; p=0.007
Description: Normal human bronchial epithelial cells (NHBE) and a human mast cell line, LAD2, were cultured and transfected with luciferase plasmids containing a 4G, 5G or pGL3-basic vector (empty backbone). […] (FIG. 1B)
Normal human bronchial epithelial cells (NHBE) were cultured in 5% CO2 chamber at 37° C. with epithelial cell growth basal media (BEGM, Lonza). Cells were seeded on type 1 collagen-coated plate. Prior to transfection and stimulation, NHBEs were cultured without hydrocortisone (HC) for a day or two, at ˜80% confluency in 12 wells. Passage 2 or 3 was used for the experiment. Cells were transfected with luciferase plasmids containing different Pai-1 polymorphisms, 4G4G, 5G5G, pGL3-luciferase reporter basic vector (empty backbone, Promega, Madison, WI, USA) using Lipofectamine 3000 transfection reagent (Invitrogen, Waltham, MA, USA). Cells were stimulated for 6 hours with TGF-β (2 ng/mL, R&D Systems, Minneapolis, MN, USA) with and without genistein (Sigma-Aldrich, St. Louis, MO, USA) pretreatment (5 μM) for 1 hour. Cells were harvested and lysed in 1×PLB reagent prior to performing Dual-luciferase report assay (DLR assay, Promega, Madison, WI, USA). The firefly luciferase activity and Renilla luciferase activity were measured sequentially.

[3] = system: PAI-1; conditions: normal bronchial epithelial cells; cited from earlier work
[4] = system: PAI-1 4G promoter; assay: PAI-1 promoter luciferase reporter assay in stimulated LAD2 mast cells; type: cell-based, human; conditions: cells transfected with 4G vector, genistein pretreatment 5 μM 1 hour
Description: LAD2 cells, a human mast cell line, were cultured and transfected with luciferase plasmids containing a 4G, 5G or pGL3-basic vector to determine the promotor activity. These LAD2 cells were stimulated overnight with IgE (100 ng/mL) and streptavidin (500 ng/mL) (IgE+streptavidin) for IgE-receptor cross-linking or Ionomycin (100 ng/mL) and phorbol myristate acetate (PMA, 10 ng/ml) (Ionomycin+PMA) with or without genistein pretreatment (5 μM) for 1 hour. […] LAD2 cells transfected with the 5G vector didn't increase promoter activity by IgE+Streptavidin/Ionomycin+PMA stimulation compared to no treatment (FIGS. 2C and 2D).
Human mast cells (LAD2) were grown in complete serum-free growth media (Stem pro-34 with the supplement, penicillin/streptomycin, L-glutamine and SCF recombinant, Invitrogen, Waltham, MA, USA). Cells were cultured in cytokine-free media (without SCF recombinant) at density of ˜0.5×10^6 per mL for a day prior to transfection and stimulation. Cells were transfected with luciferase plasmids containing different Pai-1 polymorphisms, 4G4G, 5G5G, pGL3-luciferase reporter basic vector (empty backbone, Promega, Madison, WI) using Lipofectamine 3000 transfection reagent (Invitrogen, Waltham, MA, USA). […] The firefly luciferase activity and Renilla luciferase activity were measured sequentially.

| SMILES | Airway hyperresponsiveness (AHR) [1] | Degree of eosinophilic airway inflammation [1] | PAI-1 4G promoter activity increased by TGF-β1 stimulation [2] | TGF-β1-induced PAI-1 production [3] | PAI-1 4G promoter activity increased by IgE+Streptavidin stimulation ([4]; IgE 100 ng/mL + streptavidin 500 ng/mL, p=0.05) | PAI-1 4G promoter activity increased by Ionomycin+PMA stimulation ([4]; Ionomycin 100 ng/mL + PMA 10 ng/ml, p<0.05) |
| --- | --- | --- | --- | --- | --- | --- |
| O=C(O)C(=O)c1cn(Cc2ccccc2)c2ccc(-c3ccc(OC(F)(F)F)cc3)cc12 [Tiplaxtinin] | reduced | reduced |  |  |  |  |
| O=c1c(-c2ccc(O)cc2)coc2cc(O)cc(O)c12 [genistein, 5,7-dihydroxy-3-(4-hydroxyphenyl)-chromen-4-onc] |  |  | blocked by genistein pretreatment significantly | downregulation | blocked by genistein pretreatment significantly | blocked by genistein pretreatment significantly |
